Experiment [1] has as its system cows. The experiment in a line: Abomasal infusion of glycerol on an on-off-on schedule, total solids in milk (Example 6, FIG. 3). Format: in vivo. Particulars: 150 g/cow/day abomasal weeks 1-3 and 7-9, water weeks 4-6; average of two cows. On the procedure: FIG. 3 is a graph of the concentration of total solids in milk versus time when abomasally infusing glycerol into cattle in accordance with the method of the present invention. To determine the weight percent total solids, wet basis, in a sample, the actual weight of total solids is determined by analyzing the sample in accordance with Method #925.23 (33.2.09) of Official Methods of Analysis, Association of Official Analytical Chemists (AOAC) (16th Ed., 1995). The weight percent total solids, wet basis, is then calculated by dividing the actual weight of total solids by the actual weight of the sample. In Example 6, two cows were abomasally infused at the rate of 150 grams per cow per day of glycerol on an on-off-on schedule to determine whether there were any benefits to intermittently providing glycerol to the abomasum of the cattle. For each cow, glycerol was abomasally infused during weeks 1-3 and weeks 7-9, while water, and not glycerol, was abomasally infused into each cow during weeks 4-6. The results of this test are graphically depicted in FIG. 3 as the concentration, expressed as weight percent, of total solids in the milk produced by the cattle during the test period.

For experiment [2], the system named is cows. Briefly: Abomasal infusion of sorbitol in cows, repeat trial with different cows (Example 3). It is filed as in vivo, cow. Particulars: for Fat / Lactose / Non-Protein Nitrogen / Total Solids / True Protein: 100 g/cow/day abomasal, 3 cows. On the procedure: To determine the weight percent total solids, wet basis, in a sample, the actual weight of total solids is determined by analyzing the sample in accordance with Method #925.23 (33.2.09) of Official Methods of Analysis, Association of Official Analytical Chemists (AOAC) (16th Ed., 1995). The weight percent total solids, wet basis, is then calculated by dividing the actual weight of total solids by the actual weight of the sample. The weight percent of true protein, wet basis, for a particular sample is calculated after first determining the wet basis weight percent of total Kjeldahl nitrogen and the wet basis weight percent of non-protein nitrogen in the sample. The wet basis weight percent of total Kjeldahl nitrogen in the sample is determined using the method referenced above. The wet basis weight percent of non-protein nitrogen (NPN) in the sample is determined in accordance with Method #991.21 (33.2.12) of Official Methods of Analysis, Association of Official Analytical Chemists (AOAC) (16th Ed., 1995). The weight percent of true protein, wet basis, in the sample is then determined by subtracting the wet basis weight percent of non-protein nitrogen in the sample from the wet basis weight percent of total Kjeldahl nitrogen in the sample. To determine the weight percent lactose, wet basis, in a liquid sample, the weight of the liquid sample is first determined. The actual weight of lactose in the liquid sample may then be determined using analysis kit number 176-303, that is available from Boehringer-Mannheim of Indianapolis, Ind. in accordance with the procedural instructions included with analysis kit number 176-303. The weight percent lactose, wet basis, in the liquid sample is then calculated by dividing the actual weight of lactose in the liquid sample by the actual weight of the liquid sample. To determine the weight percent fat, wet basis, in a sample, the actual weight of fat in the sample is determined in accordance with Method #974.09 (33.7.18) of Official Methods of Analysis, Association of Official Analytical Chemists (AOAC) (16th Ed., 1995). The weight percent fat, wet basis, is then calculated by dividing the actual weight of fat in the sample by the actual weight of the sample. In this example, sorbitol was abomasally infused into three different cows at a rate of 100 grams of sorbitol per cow per day during a 14 day test period. The sorbitol rations were mixed with water to facilitate infusion. The rations provided to the cows during the period extending from day 0, prior to abomasal infusion of sorbitol, through day 14 of the test period were the same. The only difference in feeding of the cows between day 0 and days 1-14 of the test period were that during days 1-14 the cows were abomasally infused with the dosage of 100 grams of sorbitol per cow per day. Milk from the three cows was collected and analyzed prior to infusion (on day 0) and also was collected and analyzed on the third, seventh and fourteenth day of the test period. The results presented in Table 2 below for each milk component for each particular day are averages for the milk collected from the three different cows. The trial of Example 2 was repeated in Example 3 several months later using three different cows. All of the test conditions described above for Example 2 were repeated in Example 3, with the exception of use of different cows. The results of the second trial are listed in Table 3 below: The net change for the different milk components presented in Table 3 was calculated by averaging the results of days 3, 7 and 14 for a particular milk component and subtracting the results presented for day 0 for the particular milk component. The results of Table 3 illustrate that, on average, the abomasal infusion of sorbitol caused a net increase in the amount of fat and total solids in the milk of the test cattle. […]

[3] abbreviates: milk, average of days 3, 7, 14 minus day 0.

Turning to `OCC(O)CO` [glycerol], the “weight percent of total solids in the milk (FIG. 3, in words)” value with cows [1] is listed as “increased”.

Turning to `OC[C@@H](O)[C@@H](O)[C@H](O)[C@@H](O)CO` [sorbitol], the “amount of fat and total solids in the milk (conclusion in words)” value in the experiment with cows [2] (abomasal infusion, 14 day test period, on average) was “net increase”. Further, in the experiment with cows [2] (milk, Day 3), the Fat came to 4.22 Wt %, the Lactose is 4.80 Wt. %, the “Non-Protein Nitrogen” value was determined as 0.23 Wt. % and the “Total Solids” value stood at 12.95 Wt. %. For the same molecule, in the experiment on cows [2] (milk, Day 3), the “True Protein” value came to 3.21 Wt. %. In addition, in the experiment on cows [2] (milk, Day 7), the Fat worked out at 3.53 Wt %, the Lactose was found to be 5.12 Wt. %, the “Non-Protein Nitrogen” value was 0.27 Wt. % and the “Total Solids” value was found to be 12.26 Wt. %. Besides, in the experiment on cows [2] (milk, Day 7), the “True Protein” value was found to be 2.89 Wt. %. For the same molecule, in the experiment on cows [2] (milk, Day 14), the Fat came out at 3.81 Wt %, the Lactose is 5.80 Wt. %, the “Non-Protein Nitrogen” value worked out at 0.23 Wt. % and the “Total Solids” value is listed as 12.55 Wt. %. Further, the “True Protein” value in the experiment with cows [2] (milk, Day 14) came out at 3.22 Wt. %. In the experiment on cows [2] (setting [3]), the “Fat, Net Change” value is given as “+0.38 Wt %”; the “Lactose, Net Change” value was “+0.39 Wt. %”; the “Non-Protein Nitrogen, Net Change” value is recorded as “no net change”; the “Total Solids, Net Change” value is “+0.41 Wt. %”. In addition, in the experiment with cows [2] (setting [3]), the “True Protein, Net Change” value is reported as −0.03 Wt. %. In the experiment with cows [2] (milk, days 3 and 14 versus day 0), the “increase of true protein content if the results of day 7 were eliminated from the net change” value is recorded as “about 0.08 weight percent”.

For the origin of these results see patent publication US6866861B1, “Method and composition for enhancing milk component concentrations” (Land O'Lakes, Inc., priority 1999, dated 2005).
